Patent US20250171465A1, “AKT INHIBITORS” (Stablix, Inc., priority 2023, published 2025)

How the values were obtained:
[1] = system: KU1919.1; assay: Cell Titer Glo (CTG) proliferation assay, KU1919; assay type: cell-based; conditions: Homo sapiens, KU-19-19; KU1919.1 cells, 72.0 hrs.; read-out: AVE CTG Proliferation KU1919.1 72.0 hrs.
Protocol: (§1) Seed cells in 40 μL of cell culture media into each well of 384-well cell culture plate, spin them at room temperature at 1,000 RPM for 1 minute and then transfer the plates into 37° C. 5% CO2 incubator overnight. Next day, treat cells with 40 nL of diluted compound and return to incubator. After compound treatment for 3 days, Add 30 μL of CellTiter-Glo reagent (Promega) into each well to be detected. Then place the plates at room temperature for 30 min followed by reading on EnVision. Inhibition activity calculated as % DMSO=100×(LumSample-Lum low control)/(Lum high control-Lum low control) where high control is from cells treated with 0.1% DMSO and Low control obtained from PBS only. Use XLFit (equation 201) to calculate IC50 (A+ ((B−A)/(1[…]((x/C)^D)))) where A: Bottom, B: Top, C: IC50, D: Slope.

[2] = system: MDAMB468.1; assay: Cell Titer Glo (CTG) proliferation assay, MDA-MB-468; assay type: cell-based; conditions: Homo sapiens, MDA-MB-468; MDAMB468.1 cells, 72.0 hrs.; read-out: AVE CTG Proliferation MDAMB468.1 72.0 hrs.
Protocol: as §1

Row | SMILES | IC50 [1] | IC50 [2]
1 | CCc1cccc(-c2cnc(C(=O)NCCOCCNCC[C@H](NC(=O)C3(N)CCN(c4ncnc5[nH]ccc45)CC3)c3ccc(Cl)cc3)c(NC(=O)OC(C)(C)C)c2)c1 [Compound I-301] | 1 to 5 µM | 1 to 5 µM
2 | CCc1cccc(-c2cnc(C(=O)NCCOCCNCC[C@H](NC(=O)C3(N)CCN(c4ncnc5[nH]ccc45)CC3)c3ccc(Cl)cc3)c(NC(C)=O)c2)c1 [Compound I-184] | 5 to 10 µM | > 10 µM
3 | NC1(C(=O)N[C@@H](CCN2CCN(C(=O)CN3CCC(OC4CCN(C(=O)[C@H](NC(=O)c5cc(C6CCCN(C(=O)CNCc7ccc(F)cc7F)C6)ccc5F)C5CCCCC5)CC4)CC3)CC2)c2ccc(Cl)cc2)CCN(c2ncnc3[nH]ccc23)CC1 (some centres unmarked) [Compound I-225] | 1 to 5 µM | 1 to 5 µM
4 | C[C@@H]1C[C@@H](O)c2ncnc(N3CCN(C(=O)[C@H](CNCCNC(=O)CN4CCC(CN5CCN(C(=O)[C@H](NC(=O)c6cccc(C7CCCN(C(=O)CNC8CC8)C7)c6)C6CCCCC6)CC5)CC4)c4ccc(Cl)cc4)CC3)c21 (some centres unmarked) [Compound I-205] | 5 to 10 µM | > 10 µM
5 | C[C@@H]1C[C@@H](O)c2ncnc(N3CCN(C(=O)[C@H](CNC4CCN(CC5CCN(C(=O)[C@H](NC(=O)c6cccc(C7CCCN(C(=O)C8CC8)C7)c6)C6CCCCC6)CC5)CC4)c4ccc(Cl)cc4)CC3)c21 (some centres unmarked) [Compound I-214] | 1 to 5 µM | 1 to 5 µM
6 | NC1(C(=O)N[C@@H](CCN2CCC(OC3CCN(C(=O)c4cccc(C5CCCN(C(=O)CNCc6ccc(F)cc6F)C5)c4)CC3)CC2)c2ccc(Cl)cc2)CCN(c2ncnc3[nH]ccc23)CC1 (some centres unmarked) [Compound I-253] | 1 to 5 µM | 1 to 5 µM
7 | C[C@@H]1C[C@@H](O)c2ncnc(N3CCN(C(=O)[C@H](CNCCNC(=O)CN4CCC(CN5CCNCC5)CC4)c4ccc(Cl)cc4)CC3)c21 [Compound I-328] | > 10 µM | > 10 µM
8 | CC(C)N(CCNC(=O)CN1CCC(CN2CCN(C(=O)[C@H](NC(=O)c3cccc(C4CCCN(C(=O)CNCc5ccc(F)cc5F)C4)c3)C3CCCCC3)CC2)CC1)C[C@@H](C(=O)N1CCN(c2ncnc3c2[C@H](C)C[C@H]3O)CC1)c1ccc(Cl)cc1 (some centres unmarked) [Compound I-200] | 1 to 5 µM | 1 to 5 µM
9 | CCc1cccc(-c2cnc(C(=O)NCCOCCNCC[C@H](NC(=O)C3(N)CCN(c4ncnc5[nH]ccc45)CC3)c3ccc(Cl)cc3)c(N)c2)c1 [Compound I-183] | 5 to 10 µM | 5 to 10 µM
10 | NC1(C(=O)N[C@@H](CCN2CCN(C(=O)CN3CCC(OC4CCN(C(=O)c5cccc(C6CCCN(C(=O)CNCc7ccc(F)cc7F)C6)c5)CC4)CC3)CC2)c2ccc(Cl)cc2)CCN(c2ncnc3[nH]ccc23)CC1 (some centres unmarked) [Compound I-256] | 5 to 10 µM | 5 to 10 µM
11 | NC1(C(=O)N[C@@H](CCN2CCN(C(=O)CN3CCC(OC4CCN(C(=O)c5cccc(C6CCCN(C(=O)CNC7CC7)C6)c5)CC4)CC3)CC2)c2ccc(Cl)cc2)CCN(c2ncnc3[nH]ccc23)CC1 (some centres unmarked) [Compound I-257] | > 10 µM | > 10 µM
12 | C[C@@H]1C[C@@H](O)c2ncnc(N3CCN(C(=O)[C@H](CNCCNC(=O)CNC45CCC(CN6CCN(C(=O)[C@H](NC(=O)c7cccc(C8CCCN(C(=O)CNCc9ccc(F)cc9F)C8)c7)C7CCCCC7)CC6)(CC4)OC5)c4ccc(Cl)cc4)CC3)c21 (some centres unmarked) [Compound I-203] | 5 to 10 µM | 5 to 10 µM
13 | CCc1cccc(-c2cnc(C(=O)N3CCN(CC4CCN(CC(=O)NCCNC[C@@H](C(=O)N5CCN(c6ncnc7c6[C@H](C)C[C@H]7O)CC5)c5ccc(Cl)cc5)CC4)CC3)c(NC(=O)CN3CCOCC3)c2)c1 [Compound I-173] | 1 to 5 µM | 1 to 5 µM
14 | CCc1cccc(-c2cnc(C(=O)N3CCN(CC45CCC(NCC(=O)NCCNC[C@@H](C(=O)N6CCN(c7ncnc8c7[C@H](C)C[C@H]8O)CC6)c6ccc(Cl)cc6)(CC4)CO5)CC3)c(NC(=O)CN3CCOCC3)c2)c1 [Compound I-175] | 1 to 5 µM | 1 to 5 µM
15 | NC1(C(=O)N[C@@H](CCN2CCN(C(=O)CN3CCC(OC4CCN(C(=O)c5cc(C6CCCN(C(=O)CNCc7ccc(F)cc7F)C6)ccc5F)CC4)CC3)CC2)c2ccc(Cl)cc2)CCN(c2ncnc3[nH]ccc23)CC1 (some centres unmarked) [Compound I-223] | 1 to 5 µM | 1 to 5 µM
16 | CCc1cccc(-c2cnc(C(=O)N3CCN(CC45CCC(NCC(=O)NCCNC[C@@H](C(=O)N6CCN(c7ncnc8c7[C@H](C)C[C@H]8O)CC6)c6ccc(Cl)cc6)(CC4)CO5)CC3)c(N)c2)c1 [Compound I-195] | > 10 µM | > 10 µM
17 | CCc1cccc(-c2cnc(C(=O)N3CCC(OC4CCN(CC(=O)NCCNC[C@@H](C(=O)N5CCN(c6ccnc7c6[C@H](C)C[C@H]7O)CC5)c5ccc(Cl)cc5)CC4)CC3)c(NC(=O)OC(C)(C)C)c2)c1 [Compound I-304] | 1 to 5 µM | 1 to 5 µM
18 | CCOc1cc(OC)ccc1CNCC(=O)N1CCCC(c2cccc(C(=O)N[C@@H](C(=O)N3CCN(CC4CCN(CC(=O)NCCN(C[C@@H](C(=O)N5CCN(c6nncc7c6[C@H](C)C[C@H]7O)CC5)c5ccc(Cl)cc5)C(C)C)CC4)CC3)C3CCCCC3)c2)C1 (some centres unmarked) [Compound I-171] | 0.5 to 1 µM | 1 to 5 µM
19 | CCc1cccc(-c2cnc(C(=O)N3CCN(CC45CCC(NCC(=O)NCCNC[C@@H](C(=O)N6CCN(c7ncnc8c7[C@H](C)C[C@H]8O)CC6)c6ccc(Cl)cc6)(CC4)CO5)CC3)c(NC(C)=O)c2)c1 [Compound I-197] | 5 to 10 µM | 1 to 5 µM
20 | C[C@@H]1C[C@@H](O)c2ncnc(N3CCN(C(=O)[C@H](CNCCNC(=O)CNC45CCC(CN6CCN(C(=O)[C@H](NC(=O)c7cccc(C8CCCN(C(=O)C9CC9)C8)c7)C7CCCCC7)CC6)(CC4)OC5)c4ccc(Cl)cc4)CC3)c21 (some centres unmarked) [Compound I-215] | > 10 µM | > 10 µM
21 | CCc1cccc(-c2cnc(C(=O)NCCOCCNCC(=O)NCCN(C[C@@H](C(=O)N3CCN(c4ncnc5c4[C@H](C)C[C@H]5O)CC3)c3ccc(Cl)cc3)C(C)C)c(N)c2)c1 [Compound I-217] | 1 to 5 µM | 1 to 5 µM
22 | NC1(C(=O)N[C@@H](CCN2CCN(C(=O)CN3CCC(OC4CCN(C(=O)c5cccc(C6CCCN(C(=O)C7CC7)C6)c5)CC4)CC3)CC2)c2ccc(Cl)cc2)CCN(c2ncnc3[nH]ccc23)CC1 (some centres unmarked) [Compound I-255] | > 10 µM | > 10 µM
23 | CCc1cccc(-c2cnc(C(=O)N3CCC(CN4CCN(CC(=O)NCCNC[C@@H](C(=O)N5CCN(c6ncnc7c6[C@H](C)C[C@H]7O)CC5)c5ccc(Cl)cc5)CC4)CC3)c(NC(=O)CNCc3ccncn3)c2)c1 [Compound I-165] | > 10 µM | > 10 µM
24 | CCc1cccc(-c2cnc(C(=O)N3CCC(CN4CCN(CC(=O)NCCNC[C@@H](C(=O)N5CCN(c6ncnc7c6[C@H](C)C[C@H]7O)CC5)c5ccc(Cl)cc5)CC4)CC3)c(NC(=O)CN3CCOCC3)c2)c1 [Compound I-172] | 5 to 10 µM | 5 to 10 µM
25 | NC1(C(=O)N[C@@H](CCNS(=O)(=O)CCCCNC(=O)[C@H](NC(=O)c2cccc(C3CCCN(C(=O)C4CC4)C3)c2)C2CCCCC2)c2ccc(Cl)cc2)CCN(c2ncnc3[nH]ccc23)CC1 (some centres unmarked) [Compound I-234] | > 10 µM | –
26 | NC1(C(=O)N[C@@H](CCN2CCC(OC3CCN(C(=O)[C@H](NC(=O)c4cccc(C5CCCN(C(=O)CNC6CC6)C5)c4)C4CCCCC4)CC3)CC2)c2ccc(Cl)cc2)CCN(c2ncnc3[nH]ccc23)CC1 (some centres unmarked) [Compound I-250] | 1 to 5 µM | –
